Key:
Test in all cases: SelectScreen ZLYTE
Format in all cases: biochemical
[1] = target: T1, STK23 (MSSK1) (Homo sapiens, UniProt Q9UPE1); conditions: ATP Km, read-out: Percentage of inhibition
T1 construct: purchased Life Technologies
Procedure, shortened: (§1)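 Compound tested at 1 μM only; no dose–response. Data are % inhibition from a whole-panel kinase screen.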

[2] = target: T2, PRKG2 (PKG2) (Homo sapiens, UniProt Q13237); conditions: ATP Km, read-out: Percentage of inhibition
T2 construct: purchased Life Technologies
Procedure, shortened: as §1

[3] = target: T3, CDC42 BPG (MRCKG) (Homo sapiens, UniProt Q6DT37); conditions: ATP Km, read-out: Percentage of inhibition
T3 construct: purchased Life Technologies (SelectScreen Whole Panel service)
Procedure, shortened: as §1

[4] = target: T4, ADRBK1 (GRK2) (Homo sapiens, UniProt P25098); conditions: ATP Km, read-out: Percentage of inhibition
T4 construct: purchased Life Technologies (SelectScreen Whole Panel)
Procedure, shortened: as §1

[5] = target: T5, PAK3 (Homo sapiens, UniProt O75914); conditions: ATP Km, read-out: Percentage of inhibition
T5 construct: purchased Life Technologies
Procedure, shortened: as §1

[6] = target: CAMK2A (CaMKII alpha) (Homo sapiens, UniProt Q9UQM7); conditions: ATP Km, read-out: Percentage of inhibition
Procedure, shortened: as §1

[7] = target: T6, TNK1 (Homo sapiens, UniProt Q13470); conditions: ATP Km, read-out: Percentage of inhibition
T6 construct: purchased Life Technologies
Procedure, shortened: as §1

[8] = target: T7, NEK9 (Homo sapiens, UniProt Q8TD19); conditions: ATP Km, read-out: Percentage of inhibition
T7 construct: purchased Life Technologies
Procedure, shortened: as §1

[9] = target: T8, PRKD2 (PKD2) (Homo sapiens, UniProt Q9BZL6); conditions: ATP Km, read-out: Percentage of inhibition
T8 construct: purchased Life Technologies
Procedure, shortened: as §1

[10] = target: T9, STK25 (YSK1) (Homo sapiens, UniProt O00506); conditions: ATP Km, read-out: Percentage of inhibition
T9 construct: purchased Life Technologies (SelectScreen Whole Panel service)
Procedure, shortened: as §1

[11] = target: T10, INSRR (IRR) (Homo sapiens, UniProt P14616); conditions: ATP Km, read-out: Percentage of inhibition
T10 construct: purchased Life Technologies (SelectScreen Whole Panel)
Procedure, shortened: as §1

[12] = target: T11, EGFR (ErbB1) L861Q (Homo sapiens, UniProt P00533, L861Q); conditions: ATP Km, read-out: Percentage of inhibition
T11 construct: purchased Life Technologies (SelectScreen)
Procedure, shortened: as §1

[13] = target: T12, STK22B (TSSK2) (Homo sapiens, UniProt Q96PF2); conditions: ATP Km, read-out: Percentage of inhibition
T12 construct: purchased Life Technologies
Procedure, shortened: as §1

[14] = target: T13, MAP3K19 (YSK4) (Homo sapiens, UniProt Q56UN5); conditions: ATP Km, read-out: Percentage of inhibition
T13 construct: purchased Life Technologies (SelectScreen Whole Panel)
Procedure, shortened: as §1

[15] = target: STK24 (MST3) (Homo sapiens, UniProt Q9Y6E0); conditions: ATP Km, read-out: Percentage of inhibition
Procedure, shortened: as §1

[16] = target: T14, CDK18/cyclin Y (Homo sapiens, UniProt Q07002); conditions: ATP Km, read-out: Percentage of inhibition
T14 construct: purchased Life Technologies
Procedure, shortened: as §1

[17] = target: T15, SRC (Homo sapiens, UniProt P12931); conditions: ATP Km, read-out: Percentage of inhibition
T15 construct: purchased Life Technologies
Procedure, shortened: as §1

[18] = target: T16, CAMK2B (CaMKII beta) (Homo sapiens, UniProt Q13554); conditions: ATP Km, read-out: Percentage of inhibition
T16 construct: purchased Life Technologies (SelectScreen Whole Panel service)
Procedure, shortened: as §1

[19] = target: EPHB4 (Homo sapiens, UniProt P54760); conditions: ATP Km, read-out: Percentage of inhibition
Procedure, shortened: as §1

[20] = target: MELK (Homo sapiens, UniProt Q14680); conditions: ATP Km, read-out: Percentage of inhibition
Procedure, shortened: as §1

[21] = target: T17, MAP4K2 (GCK) (Homo sapiens, UniProt Q12851); conditions: ATP Km, read-out: Percentage of inhibition
T17 construct: purchased Life Technologies (SelectScreen Whole Panel service)
Procedure, shortened: as §1

[22] = target: T18, RPS6KB1 (p70S6K) (Homo sapiens, UniProt P23443); conditions: ATP Km, read-out: Percentage of inhibition
T18 construct: purchased Life Technologies (SelectScreen Whole Panel service)
Procedure, shortened: as §1

[23] = target: KIT V559D V654A (Homo sapiens, UniProt P10721, V559D/V654A); conditions: ATP Km, read-out: Percentage of inhibition
Procedure, shortened: as §1

[24] = target: T19, DCAMKL1 (DCLK1) (Homo sapiens, UniProt O15075); conditions: ATP Km, read-out: Percentage of inhibition
T19 construct: purchased Life Technologies
Procedure, shortened: as §1

[25] = target: T20, RET Y791F (Homo sapiens, UniProt P07949, Y791F); conditions: ATP Km, read-out: Percentage of inhibition
T20 construct: purchased Life Technologies
Procedure, shortened: as §1

[26] = target: T21, JAK3 (Homo sapiens, UniProt P52333); conditions: ATP Km, read-out: Percentage of inhibition
T21 construct: purchased Life Technologies (SelectScreen service)
Procedure, shortened: as §1

[27] = target: T22, SNF1LK2 (Homo sapiens, UniProt Q9H0K1); conditions: ATP Km, read-out: Percentage of inhibition
T22 construct: purchased Life Technologies (SelectScreen service)
Procedure, shortened: as §1

[28] = target: T23, MATK (HYL) (Homo sapiens, UniProt P42679); conditions: ATP Km, read-out: Percentage of inhibition
T23 construct: purchased Life Technologies (SelectScreen Whole Panel service)
Procedure, shortened: as §1

[29] = target: T24, BRSK1 (SAD1) (Homo sapiens, UniProt Q8TDC3); conditions: ATP Km, read-out: Percentage of inhibition
T24 construct: purchased Life Technologies (SelectScreen Whole Panel service)
Procedure, shortened: as §1

[30] = target: T25, TEK (Tie2) (Homo sapiens, UniProt Q02763); conditions: ATP Km, read-out: Percentage of inhibition
T25 construct: purchased Life Technologies (SelectScreen Whole Panel service)
Procedure, shortened: as §1

[31] = target: T26, PDGFRA (PDGFR alpha) (Homo sapiens, UniProt P16234); conditions: ATP Km, read-out: Percentage of inhibition
T26 construct: purchased Life Technologies (SelectScreen Whole Panel service)
Procedure, shortened: as §1

[32] = target: T27, NEK1 (Homo sapiens, UniProt Q96PY6); conditions: ATP Km, read-out: Percentage of inhibition
T27 construct: purchased Life Technologies (SelectScreen Whole Panel service)
Procedure, shortened: as §1

[33] = target: T28, RET (Homo sapiens, UniProt P07949); conditions: ATP Km, read-out: Percentage of inhibition
T28 construct: purchased Life Technologies
Procedure, shortened: as §1

[34] = target: T29, CAMK4 (CaMKIV) (Homo sapiens, UniProt Q16566); conditions: ATP Km, read-out: Percentage of inhibition
T29 construct: purchased Life Technologies
Procedure, shortened: as §1

[35] = target: T30, MAPK14 (p38 alpha) (Homo sapiens, UniProt Q16539); conditions: ATP 100 µM, read-out: Percentage of inhibition
T30 construct: purchased Life Technologies (SelectScreen Whole Panel service)
Procedure, shortened: as §1

[36] = target: T31, GRK5 (Homo sapiens, UniProt P34947); conditions: ATP Km, read-out: Percentage of inhibition
T31 construct: purchased Life Technologies (SelectScreen Whole Panel service)
Procedure, shortened: as §1

[37] = target: T32, ACVR1B (ALK4) (Homo sapiens, UniProt P36896); conditions: ATP Km, read-out: Percentage of inhibition
T32 construct: purchased Life Technologies (SelectScreen Whole Panel)
Procedure, shortened: as §1

[38] = target: IGF1R (Homo sapiens, UniProt P08069); conditions: ATP Km, read-out: Percentage of inhibition
Procedure, shortened: as §1

T14 sequence (Q07002 whole entry): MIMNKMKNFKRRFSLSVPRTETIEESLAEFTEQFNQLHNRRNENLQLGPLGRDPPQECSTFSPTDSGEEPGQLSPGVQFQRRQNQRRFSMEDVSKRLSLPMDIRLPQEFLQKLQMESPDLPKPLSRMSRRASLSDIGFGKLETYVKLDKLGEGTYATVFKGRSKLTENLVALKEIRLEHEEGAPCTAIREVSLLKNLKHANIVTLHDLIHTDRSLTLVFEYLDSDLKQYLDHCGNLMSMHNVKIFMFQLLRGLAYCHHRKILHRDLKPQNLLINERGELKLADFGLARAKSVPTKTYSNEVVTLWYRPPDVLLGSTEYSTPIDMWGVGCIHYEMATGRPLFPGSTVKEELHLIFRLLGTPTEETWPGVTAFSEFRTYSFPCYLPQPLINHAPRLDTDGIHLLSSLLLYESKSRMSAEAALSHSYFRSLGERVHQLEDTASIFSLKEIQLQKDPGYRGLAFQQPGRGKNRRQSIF
T14 sequence (Q8ND76 whole entry partner): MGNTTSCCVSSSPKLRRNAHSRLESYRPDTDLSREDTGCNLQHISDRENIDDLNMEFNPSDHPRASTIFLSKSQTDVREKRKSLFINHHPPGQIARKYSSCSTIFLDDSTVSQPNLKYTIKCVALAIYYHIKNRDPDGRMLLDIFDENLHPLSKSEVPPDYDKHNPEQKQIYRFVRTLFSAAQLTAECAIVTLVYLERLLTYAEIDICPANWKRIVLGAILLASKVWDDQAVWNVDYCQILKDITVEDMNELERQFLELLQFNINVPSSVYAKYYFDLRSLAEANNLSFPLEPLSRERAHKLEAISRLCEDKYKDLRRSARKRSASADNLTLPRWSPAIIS
T20 sequence (P07949 29-1114 Y791F): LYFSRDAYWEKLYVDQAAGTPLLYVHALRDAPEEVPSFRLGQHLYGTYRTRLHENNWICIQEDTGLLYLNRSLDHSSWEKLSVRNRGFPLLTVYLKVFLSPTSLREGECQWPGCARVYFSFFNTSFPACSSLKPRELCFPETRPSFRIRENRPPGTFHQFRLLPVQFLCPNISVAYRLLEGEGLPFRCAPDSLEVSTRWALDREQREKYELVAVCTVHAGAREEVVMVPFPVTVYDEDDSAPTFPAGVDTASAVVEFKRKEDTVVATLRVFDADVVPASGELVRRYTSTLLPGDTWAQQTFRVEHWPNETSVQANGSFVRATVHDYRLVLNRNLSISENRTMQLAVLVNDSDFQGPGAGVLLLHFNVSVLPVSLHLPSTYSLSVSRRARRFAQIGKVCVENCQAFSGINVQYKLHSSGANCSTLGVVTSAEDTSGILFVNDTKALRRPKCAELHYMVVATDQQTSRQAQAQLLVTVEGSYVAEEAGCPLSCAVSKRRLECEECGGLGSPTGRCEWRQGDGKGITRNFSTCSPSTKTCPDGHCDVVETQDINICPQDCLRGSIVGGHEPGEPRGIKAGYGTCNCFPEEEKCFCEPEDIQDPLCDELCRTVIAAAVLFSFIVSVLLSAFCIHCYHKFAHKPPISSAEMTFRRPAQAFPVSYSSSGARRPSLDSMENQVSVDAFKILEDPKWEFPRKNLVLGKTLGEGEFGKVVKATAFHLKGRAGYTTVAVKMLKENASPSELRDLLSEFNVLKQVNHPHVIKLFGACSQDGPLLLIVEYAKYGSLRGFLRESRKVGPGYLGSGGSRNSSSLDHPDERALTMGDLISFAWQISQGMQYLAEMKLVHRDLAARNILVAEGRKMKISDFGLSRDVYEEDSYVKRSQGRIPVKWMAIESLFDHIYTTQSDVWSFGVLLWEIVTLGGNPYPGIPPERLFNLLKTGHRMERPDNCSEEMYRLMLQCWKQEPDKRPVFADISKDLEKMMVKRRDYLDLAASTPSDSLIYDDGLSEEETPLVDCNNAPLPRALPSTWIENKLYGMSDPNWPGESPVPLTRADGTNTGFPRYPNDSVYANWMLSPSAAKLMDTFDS
T27 sequence (Q96PY6 whole entry): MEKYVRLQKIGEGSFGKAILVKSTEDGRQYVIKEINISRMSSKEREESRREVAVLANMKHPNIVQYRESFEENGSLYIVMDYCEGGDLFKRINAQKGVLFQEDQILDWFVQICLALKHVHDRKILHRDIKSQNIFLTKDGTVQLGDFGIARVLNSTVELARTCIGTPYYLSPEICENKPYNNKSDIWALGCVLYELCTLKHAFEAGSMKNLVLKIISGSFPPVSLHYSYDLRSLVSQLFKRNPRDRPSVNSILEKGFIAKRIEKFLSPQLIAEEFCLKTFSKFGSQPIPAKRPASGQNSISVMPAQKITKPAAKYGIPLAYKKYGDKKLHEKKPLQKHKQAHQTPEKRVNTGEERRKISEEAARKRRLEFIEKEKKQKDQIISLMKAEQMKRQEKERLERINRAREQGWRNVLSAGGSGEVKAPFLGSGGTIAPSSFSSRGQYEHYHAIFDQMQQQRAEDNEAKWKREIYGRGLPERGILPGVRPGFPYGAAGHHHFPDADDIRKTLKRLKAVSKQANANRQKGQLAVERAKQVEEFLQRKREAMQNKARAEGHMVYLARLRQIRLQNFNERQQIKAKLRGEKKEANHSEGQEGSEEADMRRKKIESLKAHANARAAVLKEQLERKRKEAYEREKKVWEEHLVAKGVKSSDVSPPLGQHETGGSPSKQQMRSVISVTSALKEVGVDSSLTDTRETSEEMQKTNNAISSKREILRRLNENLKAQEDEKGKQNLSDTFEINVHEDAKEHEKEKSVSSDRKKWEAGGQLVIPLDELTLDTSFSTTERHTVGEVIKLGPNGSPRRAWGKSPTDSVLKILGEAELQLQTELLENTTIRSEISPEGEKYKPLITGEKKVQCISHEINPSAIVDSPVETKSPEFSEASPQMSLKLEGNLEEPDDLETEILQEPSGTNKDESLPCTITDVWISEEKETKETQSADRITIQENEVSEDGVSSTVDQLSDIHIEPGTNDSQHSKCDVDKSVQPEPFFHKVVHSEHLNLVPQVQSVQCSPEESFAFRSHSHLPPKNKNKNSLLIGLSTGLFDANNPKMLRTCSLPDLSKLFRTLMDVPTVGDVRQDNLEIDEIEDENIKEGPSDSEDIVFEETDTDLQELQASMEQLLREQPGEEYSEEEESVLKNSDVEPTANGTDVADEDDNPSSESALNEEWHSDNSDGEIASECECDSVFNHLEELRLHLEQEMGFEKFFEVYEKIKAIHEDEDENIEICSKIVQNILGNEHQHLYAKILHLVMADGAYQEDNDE
Sequence of IGF1R (P08069 31-1367): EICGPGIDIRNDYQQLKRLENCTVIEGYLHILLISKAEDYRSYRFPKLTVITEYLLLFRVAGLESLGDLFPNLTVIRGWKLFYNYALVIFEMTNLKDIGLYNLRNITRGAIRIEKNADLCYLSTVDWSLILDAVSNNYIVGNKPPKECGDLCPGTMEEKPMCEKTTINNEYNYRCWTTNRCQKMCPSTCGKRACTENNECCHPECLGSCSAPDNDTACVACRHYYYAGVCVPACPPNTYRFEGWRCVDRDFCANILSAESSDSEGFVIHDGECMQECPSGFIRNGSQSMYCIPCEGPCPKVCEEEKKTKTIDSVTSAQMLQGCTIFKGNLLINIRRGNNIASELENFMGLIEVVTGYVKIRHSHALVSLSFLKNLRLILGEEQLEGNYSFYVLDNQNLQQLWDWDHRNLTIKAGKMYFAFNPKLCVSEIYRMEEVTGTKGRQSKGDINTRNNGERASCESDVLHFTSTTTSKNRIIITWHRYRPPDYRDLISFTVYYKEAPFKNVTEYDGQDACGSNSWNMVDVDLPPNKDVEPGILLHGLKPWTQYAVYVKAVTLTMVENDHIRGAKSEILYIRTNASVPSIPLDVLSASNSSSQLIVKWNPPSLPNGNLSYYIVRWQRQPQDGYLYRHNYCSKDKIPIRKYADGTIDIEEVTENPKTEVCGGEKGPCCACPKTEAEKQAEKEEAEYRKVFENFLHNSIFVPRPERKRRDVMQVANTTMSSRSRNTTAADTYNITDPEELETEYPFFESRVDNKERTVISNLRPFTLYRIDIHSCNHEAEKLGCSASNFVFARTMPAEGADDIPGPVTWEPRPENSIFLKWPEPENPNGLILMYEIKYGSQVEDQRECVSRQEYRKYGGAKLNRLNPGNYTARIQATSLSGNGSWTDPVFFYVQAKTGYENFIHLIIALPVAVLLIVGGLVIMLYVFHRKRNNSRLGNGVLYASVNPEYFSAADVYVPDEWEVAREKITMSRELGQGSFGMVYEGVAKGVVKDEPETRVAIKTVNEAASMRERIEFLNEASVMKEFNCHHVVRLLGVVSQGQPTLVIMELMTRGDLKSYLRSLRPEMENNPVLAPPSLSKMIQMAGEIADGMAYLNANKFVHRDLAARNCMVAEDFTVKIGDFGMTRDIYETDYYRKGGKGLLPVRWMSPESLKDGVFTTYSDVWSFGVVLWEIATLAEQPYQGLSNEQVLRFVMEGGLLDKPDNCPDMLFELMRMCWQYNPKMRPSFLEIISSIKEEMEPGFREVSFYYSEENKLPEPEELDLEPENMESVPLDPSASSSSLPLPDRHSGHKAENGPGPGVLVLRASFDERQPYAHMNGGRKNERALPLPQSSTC
T31 sequence (P34947 whole entry): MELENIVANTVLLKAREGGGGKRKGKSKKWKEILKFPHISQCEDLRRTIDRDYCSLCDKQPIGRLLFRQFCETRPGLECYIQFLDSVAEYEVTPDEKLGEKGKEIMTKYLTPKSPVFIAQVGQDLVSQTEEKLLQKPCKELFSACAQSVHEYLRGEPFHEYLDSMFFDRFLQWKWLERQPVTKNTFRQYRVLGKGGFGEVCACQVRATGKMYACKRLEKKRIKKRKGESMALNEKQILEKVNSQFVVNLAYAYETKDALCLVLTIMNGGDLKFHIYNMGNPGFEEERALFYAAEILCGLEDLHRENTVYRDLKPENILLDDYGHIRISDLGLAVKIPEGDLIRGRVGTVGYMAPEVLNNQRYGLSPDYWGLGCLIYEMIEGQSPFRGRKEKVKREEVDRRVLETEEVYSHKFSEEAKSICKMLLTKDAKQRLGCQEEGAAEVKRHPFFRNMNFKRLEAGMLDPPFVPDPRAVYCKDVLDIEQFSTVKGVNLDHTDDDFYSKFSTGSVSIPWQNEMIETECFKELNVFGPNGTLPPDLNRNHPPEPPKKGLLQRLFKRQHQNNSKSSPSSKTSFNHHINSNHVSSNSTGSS

In the case of COc1ccc2[nH]c3c(=O)[nH]c4ccc(O)cc4c3c2c1 [Compound 55, 2-Hydroxy-10-methoxy-5,7-dihydro-6H-indolo[2,3-c]quinolin-6-one], the inhibition at 1 µM [1] is reported as 4%, the inhibition at 1 µM [2] is reported as 37% and the inhibition at 1 µM [3] is reported as 12%. The inhibition at 1 µM [4] was -3%, the inhibition at 1 µM [5] was 5% and the inhibition at 1 µM [6] was 20%. For the same compound, the inhibition at 1 µM [7] was 30%, the inhibition at 1 µM [8] was 4% and the inhibition at 1 µM [9] was 39%. It also gave an inhibition at 1 µM [10] of 19%, an inhibition at 1 µM [11] of 52% and an inhibition at 1 µM [12] of 9%. For the same compound, the inhibition at 1 µM [13] was 5%, the inhibition at 1 µM [14] was 49% and the inhibition at 1 µM [15] was 63%. For the same compound, the inhibition at 1 µM [16] was 36%, the inhibition at 1 µM [17] was 37% and the inhibition at 1 µM [18] was 12%. The inhibition at 1 µM [19] was 21%, the inhibition at 1 µM [20] was 57% and the inhibition at 1 µM [21] was 47%. It also gave an inhibition at 1 µM [22] of 12%, an inhibition at 1 µM [23] of 19% and an inhibition at 1 µM [24] of 2%. For the same compound, the inhibition at 1 µM [25] was 96%, the inhibition at 1 µM [26] was 79% and the inhibition at 1 µM [27] was 24%. It also gave an inhibition at 1 µM [28] of 11%, an inhibition at 1 µM [29] of 45% and an inhibition at 1 µM [30] of 13%. The inhibition at 1 µM [31] was 43%, the inhibition at 1 µM [32] was 17% and the inhibition at 1 µM [33] was 97%. For the same compound, the inhibition at 1 µM [34] was 41%, the inhibition at 1 µM [35] was 12% and the inhibition at 1 µM [36] was 18%. The inhibition at 1 µM [37] was -13% and the inhibition at 1 µM [38] was 13%.

Source: article PMC9186362, “Design and biological evaluation of substituted 5,7-dihydro-6H-indolo[2,3-c]quinolin-6-one as novel selective Haspin inhibitors” (Journal of Enzyme Inhibition and Medicinal Chemistry, 2022)
